The record followed here is patent US9220411B2, “In-vivo optical imaging method including analysis of dynamic images” (THE GENERAL HOSPITAL CORPORATION, priority 2006, dated 2015).

The data set can be described thus: Dynamic in-vivo fluorescence imaging of dye biodistribution after tail vein injection. Also on record: species or system mouse. The text has this:
FIG. 1 illustrates one embodiment of a fluorescent dynamic optical imaging system 10 for imaging small animals such as mice. The imaging system 10 includes an optical detector 16 which is operable to acquire various images of the mouse. The imaging system 10 also includes a processor and display device 11 which is operable to generate and display other images of the mouse.
The system 10 also includes an imaging platform 12 for supporting a mouse in a desired arrangement, such as in a prone position or a supine position. In a preferred embodiment, mirrors 14 are arranged at 45 degree angles with respect to the imaging platform such that multiple views of the mouse, i.e., a top and/or bottom view, and side views of the mouse, are within the field of view of the optical detector 16, which is arranged above the imaging platform 12. Other embodiments can include other arrangements of optical detector 16 and mirrors to provide other views of the mouse. In one embodiment, the optical detector 16 is a cooled 14 bit charge coupled device (CCD) camera including a relay lens 19 and the field of view is approximately 9 cm by 9 cm. Thus, although the camera produces 2D images, these are “enhanced” 2D images since multiple views of the mouse are obtained.
Bifurcated liquid light guides 25 can be used to deliver light from the sources 18A, 18B to shine on the mouse. Other means can also be used. The light sources 18A, 18B and any corresponding filter elements are selected to have desired characteristics according to the optical contrast substances to be used in the imaging process. For example, when using a fluorescent dye such as indocyanine green (ICG) dye, light source 18A can include two laser diodes (160 mW total) to provide excitation light at 785 nm to excite the ICG dye. When using a fluorescent dye such as Dextran Texas Red dye, light source 18B can be a halogen light source, and a motorized filter wheel having a plurality of filter elements can be used to provide filtered light at a desired excitation wavelength range of 570 nm plus or minus 20 nm to excite the Dextran Texas Red dye. The respective light sources can be controlled by an electronic shutter in the 570 nm light path, or digital modulation of the laser diodes to allow synchronization of illumination with the filter elements, tunable filter, and image acquisition.
At process block 34, a second optical contrast substance is introduced or activated in the mouse. For example, a dye such as an ICG dye or a Dextran Texas Red dye can be used and can be injected into the tail vein of an anesthetized mouse. ICG dye is a good choice because it is widely available, clinically approved, and it excites and emits in the near infra-red (NIR) portion of the spectrum, which is advantageous in that light scatter is lower and penetration is higher at NIR wavelengths. In one embodiment, a dye consisting of 0.05 ml of 260 uM ICG dye (Cardiogreen, Fluka) is used. In another embodiment, […] of 360 uM of Dextran Texas Red dye (70,000 MW, Invitrogen) can be used.
At process block 38, a time series of anatomical image data sets of the second optical contrast substance is acquired using the optical detector, preferably while the animal is in the same desired arrangement. This should preferably be performed right after the second optical contrast is introduced. If the second optical contrast agent is a fluorescent dye, a light source having the appropriate spectral characteristics is applied to excite the fluorescent dye. […]

With `CC1(C)C(/C=C/C=C/C=C/C=C2\N(CCCCS(=O)(=O)O)c3ccc4ccccc4c3C2(C)C)=[N+](CCCCS(=O)(=O)[O-])c2ccc3ccccc3c21` [ICG, indocyanine green], the “uptake by adipose tissue” value (mouse, longer timescales (25 minutes), preliminary data) is reported as “late uptake by adipose tissue, remaining high after 25 minutes”. For the same compound, the “uptake by the liver” value (mouse, longer timescales, preliminary data) was “rapid and sustained uptake by the liver”. The “distribution of dye in the body” value (prone mouse, by 117 seconds after injection) is “distributed fairly diffusely throughout the mouse”. For the same compound, the “fluorescence signal, next organ distribution” value (prone mouse, tail vein injection, early images (first 15 seconds), after the lung phase) is “bright signal is seen in the brain, kidneys, spleen and spine”. Moreover, where the note is “prone mouse, tail vein injection, early images (first 15 seconds), initial circulation”, the “fluorescence signal, initial organ distribution” value was “initially the lungs are bright”.
